A word on the IC50: it is the midpoint of a concentration-inhibition curve.

Structures are written as SMILES. Bounds are passed on as bounds.

Experimental findings from article PMC6214108, “Synthesis and In Vitro Antitumor Activity of Novel Bivalent β-Carboline-3-carboxylic Acid Derivatives with DNA as a Potential Target” (International Journal of Molecular Sciences, 2018) are described below.

Common to all, as to format: cell-based
In experiment [1] the test system is A549 (lung carcinoma) cell line. Kind of experiment: MTT cytotoxicity assay, A549. The settings on record: Homo sapiens, 48 h, mean of three independent experiments, read-out: IC50 (μM) Mean ± SD, A549. How it is done: (§1) All cell lines (A549, SGC-7901, Hela, SMMC-7721, and MCF-7) were purchased from the American Type Culture Collection (Manassas, VA, USA), and were cultured in Dulbecco’s modified Eagle’s medium (DMEM, HycloneLaboratories Inc., Logan, Utah, USA) supplemented with 10% fetal bovine serum (FBS, Gibco&Invitrogen, Carlsbad, CA, USA) at 37 °C and 5% CO2.
(§2) The cytotoxic activities of β-carboline-3-carboxylic acid derivatives were investigated by the MTT method, as previously described. Cells (1 × 10^4 cells per well) seeded into 96-well plates (JET, Guangzhou, China) were incubated with DMEM containing various concentrations (2.5, 5, 10, 20, 40, and 80 μM) of β-carbolines (4A, 4B, 4C, 4D, 6a-6f, 6g-6l, 6m-6r, and 6s-6x) for 48 h at 37 °C and 5% CO2. Then, 10 µL of 5 mg/mL MTT reagent dissolved in PBS (Phosphate buffered saline) was added per well, and plates were incubated at 37 °C for 4 h. The medium was carefully removed and 100 µL dimethyl sulfoxide (DMSO) was added to dissolve the formazan crystals. The absorbance was measured at 490 nm with a microplate reader (ThermoFisher Scientific Inc., Waltham, MA, USA). The β-carbolines were dissolved in DMSO as stock solutions (10 mM) at −20 °C, and diluted in the final experimental solution using DMEM before use. A549 (lung carcinoma), SGC-7901 (gastric carcinoma), Hela (cervical carcinoma), SMMC-7721 (liver carcinoma), and MCF-7 (breast carcinoma) cell lines were used for the antitumor activity screening. The IC50 values were the mean values of three independent experiments.

Experiment [2] has as its system MRC5 (normal lung cell) cell line. The experiment can be described thus: MTT cytotoxicity assay, MRC5. The settings on record: Homo sapiens, 48 h. How it is done: [The procedure below names another cell line; the source lists this cell line under the same test.] as §2
Experiment [3] concerns MCF-7 (breast carcinoma) cell line. The experiment can be described thus: MTT cytotoxicity assay, MCF-7. The conditions noted are these: Homo sapiens, MCF7, 48 h, mean of three independent experiments, read-out: IC50 (μM) Mean ± SD, MCF-7. The procedure: as §1, §2
For orientation: Tetrazolium dyes change colour on reduction, which living cells bring about.

In experiment [4] the test system is Hela (cervical carcinoma) cell line. The experiment can be described thus: MTT cytotoxicity assay, Hela. The conditions noted are these: Homo sapiens, 48 h, mean of three independent experiments, read-out: IC50 (μM) Mean ± SD, Hela. How it is done:
as §1, §2

Experiment [5] concerns SGC-7901 (gastric carcinoma) cell line. Kind of experiment: MTT cytotoxicity assay, SGC-7901. The conditions noted are these: Homo sapiens, 48 h, mean of three independent experiments, read-out: IC50 (μM) Mean ± SD, SGC-7901. How it is done:
as §1, §2

The test system of experiment [6] is SMMC-7721 (liver carcinoma) cell line. The experiment can be described thus: MTT cytotoxicity assay, SMMC-7721. The conditions noted are these: Homo sapiens, 48 h, mean of three independent experiments, read-out: IC50 (μM) Mean ± SD, SMMC-7721. The procedure: as §1, §2

For `Cc1ccc(Cn2c3ccccc3c3cc(C(=O)OCCCCOC(=O)c4cc5c6ccccc6n(Cc6ccc(C)cc6)c5cn4)ncc32)cc1` [Compound 6n], the IC50 in experiment [1] was determined as 13.4 ± 0.35 µM; in experiment [2], 26.39 ± 0.01 µM; in experiment [3], 49.1 ± 2.23 µM; in experiment [4], 28 ± 0.99 µM; in experiment [5] it was 37.8 ± 1.02 µM; in experiment [6] it was 42.7 ± 2.18 µM.
As to `O=C(OCCCCCCOC(=O)c1cc2c3ccccc3n(Cc3ccccc3F)c2cn1)c1cc2c3ccccc3n(Cc3ccccc3F)c2cn1` [Compound 6v], the IC50 was 7.95 ± 0.06 µM in experiment [1]; 67.75 ± 0.11 µM in experiment [2]; 42.4 ± 2.08 µM in experiment [3]; 22.9 ± 1.36 µM in experiment [4]; 8.6 ± 0.13 µM in experiment [5]; 24.65 ± 0.06 µM in experiment [6].
As to `O=C(OCCCCOC(=O)c1cc2c3ccccc3n(Cc3ccccc3)c2cn1)c1cc2c3ccccc3n(Cc3ccccc3)c2cn1` [Compound 6b], the IC50 was 12.26 ± 0.04 µM in experiment [1]; 64.44 ± 0.09 µM in experiment [2]; 70.9 ± 2.33 µM in experiment [3]; 18.2 ± 0.52 µM in experiment [4]; 15.5 ± 0.32 µM in experiment [5]; 66.53 ± 0.31 µM in experiment [6].
As to `O=c1[nH]cc(F)c(=O)[nH]1` [Compound 5-FU, 5-fluorouracil, reference compound], the IC50 was 15.39 ± 0.09 µM in experiment [1]; 16.3 ± 0.3 µM in experiment [2]; 57.7 ± 1.39 µM in experiment [3]; above 80 µM in experiment [4]; above 80 µM in experiment [5]; 52.3 ± 2.06 µM in experiment [6].
Take `O=C(OCCCOC(=O)c1cc2c3ccccc3n(Cc3ccccc3)c2cn1)c1cc2c3ccccc3n(Cc3ccccc3)c2cn1` [Compound 6a]: the IC50 in experiment [1] is 24.27 ± 0.12 µM; in experiment [2], 32.57 ± 0.1 µM; in experiment [3], 73.5 ± 0.88 µM; in experiment [4] it was 17.89 ± 0.03 µM; in experiment [5] it was 17.76 ± 0.17 µM; in experiment [6], 25.7 ± 0.32 µM.
Take `Cc1ccc(Cn2c3ccccc3c3cc(C(=O)OCCCOC(=O)c4cc5c6ccccc6n(Cc6ccc(C)cc6)c5cn4)ncc32)cc1` [Compound 6m]: the IC50 in experiment [1] turned out to be 19.84 ± 0.04 µM; in experiment [2], 49.05 ± 0.12 µM; in experiment [3] it was 28.43 ± 0.28 µM; in experiment [4] it was 17.95 ± 0.02 µM; in experiment [5], 18.4 ± 0.31 µM; in experiment [6], 33.32 ± 0.03 µM.
With `Cc1ccccc1Cn1c2ccccc2c2cc(C(=O)OCCCOC(=O)c3cc4c5ccccc5n(Cc5ccccc5C)c4cn3)ncc21` [Compound 6g], the IC50 in experiment [1] amounted to 18.3 ± 0.28 µM; in experiment [2] it was 32.61 ± 0.1 µM; in experiment [3] it was 53.1 ± 2.28 µM; in experiment [4] it was 17.99 ± 0.15 µM; in experiment [5], 29.4 ± 1.03 µM; in experiment [6] it was 73.5 ± 8.06 µM.
Consider `Cc1ccccc1Cn1c2ccccc2c2cc(C(=O)OCCCCCCCCOC(=O)c3cc4c5ccccc5n(Cc5ccccc5C)c4cn3)ncc21` [Compound 6k], for which the IC50 was 37.4 ± 2.08 µM in experiment [1]; 65.85 ± 0.07 µM in experiment [2]; 44.9 ± 2.99 µM in experiment [3]; 36.7 ± 2.02 µM in experiment [4]; 35 ± 2.09 µM in experiment [5]; 33.9 ± 0.52 µM in experiment [6].
For `COC(=O)c1cc2c3ccccc3n(Cc3ccccc3)c2cn1` [Compound 4A], the IC50 in experiment [1] was above 80 µM; in experiment [2], 35.6 ± 0.3 µM; in experiment [3] it was above 80 µM; in experiment [4], above 80 µM; in experiment [5], above 80 µM; in experiment [6] it was above 80 µM.
Take `COC(=O)c1cc2c3ccccc3n(Cc3ccc(C)cc3)c2cn1` [Compound 4C]: the IC50 in experiment [1] is 28.06 ± 0.13 µM; in experiment [2] it was 35.35 ± 0.3 µM; in experiment [3] it was above 80 µM; in experiment [4], 42.6 ± 0.98 µM; in experiment [5] it was 47.98 ± 0.09 µM; in experiment [6] it was above 80 µM.
Turning to `O=C(OCCCCCOC(=O)c1cc2c3ccccc3n(Cc3ccccc3)c2cn1)c1cc2c3ccccc3n(Cc3ccccc3)c2cn1` [Compound 6c], the IC50 was 17.65 ± 0.09 µM in experiment [1]; 39.34 ± 0.11 µM in experiment [2]; 76.9 ± 3.01 µM in experiment [3]; 18.15 ± 0.03 µM in experiment [4]; 18.72 ± 0.07 µM in experiment [5]; 55.15 ± 0.03 µM in experiment [6].
Turning to `Cc1ccccc1Cn1c2ccccc2c2cc(C(=O)OCCCCOC(=O)c3cc4c5ccccc5n(Cc5ccccc5C)c4cn3)ncc21` [Compound 6h], the IC50 was 8.09 ± 0.25 µM in experiment [1]; 50.78 ± 0.09 µM in experiment [2]; 76.7 ± 5 µM in experiment [3]; 45.8 ± 0.55 µM in experiment [4]; 17.8 ± 0.93 µM in experiment [5]; 24.7 ± 0.5 µM in experiment [6].
As to `O=C(OCCCCOC(=O)c1cc2c3ccccc3n(Cc3ccccc3F)c2cn1)c1cc2c3ccccc3n(Cc3ccccc3F)c2cn1` [Compound 6t], the half-inhibitory concentration (IC50) in experiment [1] is 12.4 ± 0.59 µM; in experiment [2], above 100 µM; in experiment [3] it was 25.7 ± 1.21 µM; in experiment [4], 15.2 ± 0.32 µM; in experiment [5] it was 9.01 ± 0.19 µM; in experiment [6] it was 18.26 ± 0.18 µM.
Consider `O=C(OCCCCCCOC(=O)c1cc2c3ccccc3n(Cc3ccccc3)c2cn1)c1cc2c3ccccc3n(Cc3ccccc3)c2cn1` [Compound 6d], for which the concentration for half-maximal inhibition (IC50) in experiment [1] stood at 40.03 ± 0.15 µM; in experiment [2], 66.99 ± 0.1 µM; in experiment [3], 75.5 ± 2.32 µM; in experiment [4], 32.36 ± 0.02 µM; in experiment [5] it was 58.4 ± 0.72 µM; in experiment [6], 33.49 ± 0.01 µM.
As for `Cc1ccc(Cn2c3ccccc3c3cc(C(=O)OCCCCCCOC(=O)c4cc5c6ccccc6n(Cc6ccc(C)cc6)c5cn4)ncc32)cc1` [Compound 6p], the IC50 in experiment [1] came to 19.28 ± 0.02 µM; in experiment [2], 47.6 ± 0.02 µM; in experiment [3], 55 ± 2.22 µM; in experiment [4], 15.7 ± 0.33 µM; in experiment [5], 17.8 ± 0.22 µM; in experiment [6] it was 26.8 ± 0.51 µM.
On to `Cc1ccc(Cn2c3ccccc3c3cc(C(=O)OCCCCCOC(=O)c4cc5c6ccccc6n(Cc6ccc(C)cc6)c5cn4)ncc32)cc1` [Compound 6o], for which the IC50 in experiment [1] worked out at 11.2 ± 0.61 µM; in experiment [2], 31.28 ± 0.07 µM; in experiment [3] it was 49.4 ± 1.65 µM; in experiment [4], 18.8 ± 0.46 µM; in experiment [5], 17.18 ± 0.03 µM; in experiment [6], 36.62 ± 0.12 µM.
Take `Cc1ccccc1Cn1c2ccccc2c2cc(C(=O)OCCCCCCOC(=O)c3cc4c5ccccc5n(Cc5ccccc5C)c4cn3)ncc21` [Compound 6j]: the half-inhibitory concentration (IC50) was 12.18 ± 0.06 µM in experiment [1]; 41 ± 0.07 µM in experiment [2]; 64.5 ± 3.31 µM in experiment [3]; 18.1 ± 1.03 µM in experiment [4]; 26.3 ± 1.03 µM in experiment [5]; 16.68 ± 0.03 µM in experiment [6].
`O=C(OCCCCCCCCOC(=O)c1cc2c3ccccc3n(Cc3ccccc3)c2cn1)c1cc2c3ccccc3n(Cc3ccccc3)c2cn1` [Compound 6e]: the half-maximal inhibitory concentration (IC50) in experiment [1] is 50.3 ± 3.15 µM; in experiment [2], above 100 µM; in experiment [3], above 80 µM; in experiment [4], 54 ± 0.56 µM; in experiment [5], 69.97 ± 0.13 µM; in experiment [6] it was 75.4 ± 0.89 µM.
With `O=C(OCCCCCCCCOC(=O)c1cc2c3ccccc3n(Cc3ccccc3F)c2cn1)c1cc2c3ccccc3n(Cc3ccccc3F)c2cn1` [Compound 6w], the IC50 in experiment [1] turned out to be 16.5 ± 0.33 µM; in experiment [2] it was 60.78 ± 0.16 µM; in experiment [3], 76.3 ± 3.36 µM; in experiment [4], 31.3 ± 1.88 µM; in experiment [5], 29.98 ± 0.07 µM; in experiment [6] it was 44.57 ± 0.02 µM.
Take `O=C(OCCCOC(=O)c1cc2c3ccccc3n(Cc3ccccc3F)c2cn1)c1cc2c3ccccc3n(Cc3ccccc3F)c2cn1` [Compound 6s]: the IC50 was determined as 6.12 ± 0.03 µM in experiment [1]; 22.82 ± 0.02 µM in experiment [2]; 25.2 ± 1.12 µM in experiment [3]; 13.77 ± 0.11 µM in experiment [4]; 8.06 ± 0.08 µM in experiment [5]; 14.71 ± 0.08 µM in experiment [6].
Take `Cc1ccc(Cn2c3ccccc3c3cc(C(=O)OCCCCCCCCOC(=O)c4cc5c6ccccc6n(Cc6ccc(C)cc6)c5cn4)ncc32)cc1` [Compound 6q]: the IC50 in experiment [1] is 23.65 ± 0.05 µM; in experiment [2] it was 42.06 ± 0.09 µM; in experiment [3], 43.1 ± 2.01 µM; in experiment [4], 45.2 ± 1.66 µM; in experiment [5], 35.8 ± 0.82 µM; in experiment [6] it was 29.8 ± 0.93 µM.
